Source: patent publication US7863298B2, “Bridged ring structures as pharmaceutical agents” (Exelixis, Inc., priority 2003, dated 2011)

Tested on: not listed separately
Assay: plasma calcium determination in athymic nude mice
Type: in vivo
Settings: four doses, oral gavage every other day for 14 days, Day 14; FIG. 1
Description: A (three day) effective dose study was conducted on normal BALB/c mice in order to select a compound for the athymic nude mice study described below. Two-week old male Balb/c mice (Harlan) were weighed and sorted into groups of six according to Day-1 weight. Animals were given a standard diet and housed under normal lighting conditions. Compounds were administered in sesame oil vehicle with 4% ethanol. Ethanol was removed by evaporation by sparging with nitrogen prior to dosing orally by gavage via a 1 cc syringe with a 20 G disposable feeding needle (0.1 mL dose volume). Dosing was daily for three days, with animal weights measured on Days 0, 1 and 3. […] Animal weights were monitored on Day 3, 7, 10 and 14. […]
Calcium determination was carried out in a micronized plate format with heparinized plasma samples utilizing a colorimetric assay (Sigma 588-3). […] When present in an acidic medium, the calcium Arsenazo complex forms a purple color that was determined using a standard plate reader at […] against a standard curve.
FIG. 1 compares the effect of 1α,25-dihydroxyvitamin D3, against four different doses of one selected compound of the current invention, Compound B on plasma calcium levels in athymic nude mice at Day 14 measured 3 hours after final dose. Dosage is measured in μg/kg and plasma calcium levels are in mg/dl. […]

| Compound | plasma calcium concentration |
| --- | --- |
| CCC(CC)(c1ccc(C#CC(O)C(C)(C)C)c(C)c1)c1ccc(OC[C@@H](O)CO)c(C)c1 (single isomer, unassigned) [compound B] | without elevating plasma calcium concentration |

Tested on: 24-hydroxylase
Assay: kidney 24-hydroxylase gene expression in athymic nude mice (RT-PCR)
Type: in vivo
Settings: four doses, oral gavage every other day for 14 days; FIG. 2
Description: A (three day) effective dose study was conducted on normal BALB/c mice in order to select a compound for the athymic nude mice study described below. Two-week old male Balb/c mice (Harlan) were weighed and sorted into groups of six according to Day-1 weight. Animals were given a standard diet and housed under normal lighting conditions. Compounds were administered in sesame oil vehicle with 4% ethanol. Ethanol was removed by evaporation by sparging with nitrogen prior to dosing orally by gavage via a 1 cc syringe with a 20 G disposable feeding needle (0.1 mL dose volume). Dosing was daily for three days, with animal weights measured on Days 0, 1 and 3. […] Animal weights were monitored on Day 3, 7, 10 and 14. […] The RT reactions were performed in a DNA Engine thermal cycler (PTC-200, MJ Research) (50° C. 30 minutes; 72° C. 5 minutes) Real-Time Quantitative PCR was performed in a 384 well assay plate using the Prism 7900HT (ABI) using the entire product from the reverse transcription reaction above (5 uL). […] Results were analyzed using the data analysis and software packet (SDS) provided with the instrumentation. FIG. 1 compares the effect of 1α,25-dihydroxyvitamin D3, against four different doses of one selected compound of the current invention, Compound B on plasma calcium levels in athymic nude mice at Day 14 measured 3 hours after final dose. […]

| Compound | RNA expression of kidney 24-hydroxylase (relative to cyclophilin) |
| --- | --- |
| CCC(CC)(c1ccc(C#CC(O)C(C)(C)C)c(C)c1)c1ccc(OC[C@@H](O)CO)c(C)c1 (single isomer, unassigned) [compound B] | dose responsive increase |

Molecular target: T1, VDR (Homo sapiens, UniProt P11473)
T1 construct: expressed in transfected cells; host or cells: CV-1 (African green monkey kidney cells), transient transfection
T1 sequence (P11473 92-425): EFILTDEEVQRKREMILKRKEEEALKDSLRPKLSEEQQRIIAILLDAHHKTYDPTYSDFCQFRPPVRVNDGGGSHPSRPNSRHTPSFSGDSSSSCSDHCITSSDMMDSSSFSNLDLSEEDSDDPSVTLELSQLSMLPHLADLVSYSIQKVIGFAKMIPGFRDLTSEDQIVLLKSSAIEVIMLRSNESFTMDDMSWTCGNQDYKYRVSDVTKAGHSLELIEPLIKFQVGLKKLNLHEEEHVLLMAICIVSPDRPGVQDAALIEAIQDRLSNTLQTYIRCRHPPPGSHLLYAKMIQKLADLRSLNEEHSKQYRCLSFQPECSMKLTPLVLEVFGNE
T1 sequence (Q15788 381-891 partner limits assumed): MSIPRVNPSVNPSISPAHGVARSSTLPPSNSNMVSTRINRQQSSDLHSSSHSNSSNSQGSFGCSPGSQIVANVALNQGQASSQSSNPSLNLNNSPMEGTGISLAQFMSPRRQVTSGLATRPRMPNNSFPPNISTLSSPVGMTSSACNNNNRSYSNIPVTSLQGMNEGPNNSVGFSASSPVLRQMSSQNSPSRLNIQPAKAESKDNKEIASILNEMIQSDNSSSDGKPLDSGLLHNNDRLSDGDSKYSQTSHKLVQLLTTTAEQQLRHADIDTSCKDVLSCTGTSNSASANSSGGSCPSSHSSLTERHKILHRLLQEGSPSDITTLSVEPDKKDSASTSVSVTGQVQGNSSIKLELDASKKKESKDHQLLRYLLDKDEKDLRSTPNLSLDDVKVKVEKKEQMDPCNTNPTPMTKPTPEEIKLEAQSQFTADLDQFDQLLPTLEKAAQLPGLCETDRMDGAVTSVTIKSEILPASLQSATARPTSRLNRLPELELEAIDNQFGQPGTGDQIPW
Assay: modified mammalian two-hybrid assay (VDR / SRC-1 interaction, luciferase reporter)
Type: cell-based
Settings: CV-1 cells, exemplary compounds, read-out: agonist activity EC50
Description: Compound activity was determined using a modified mammalian two-hybrid assay, using the interaction of VDR to the co-factor SRC-1 to monitor receptor activation.
Following incubation with transfection reagents for 5 hours at 37° C., transfected cells were trypsinized, centrifuged, resuspended in media and added to the assay plates, (45 μl, 5000 cells per well). The assay plates containing both compounds and screening cells were incubated for approximately 20 hours at 37° C. in a tissue culture incubator.
After incubation of the transfected cells with compounds, media was aspirated and lysis buffer (1% Triton X 100, 10% Glycerol, 5 mM Dithiothreitol,1 mM EGTA, 25 mM Tricine pH 7.8) added.

| Compound | EC50 [µM] |
| --- | --- |
| CCC(CC)(c1ccc(CCC(C)(C)O)c(C)c1)c1ccc(OC[C@@H](O)CO)c(C)c1 [3-(4-{1-ethyl-1-[4-(3-hydroxy-3-methylbutyl)-3-methylphenyl]-propyl}-2-methylphenoxy)-propane 1,2(S)-diol] | < 10 |
| CCC(CC)(c1ccc(CCC(O)C(C)(C)C)cc1)c1ccc(OC[C@@H](O)CO)c(C)c1 (stereo partly drawn) [3-(4-{1-Ethyl-1-[4-(3-hydroxy-4,4-dimethylpentyl)-phenyl]-propyl}-2-methylphenoxy)-propane-1,2(S)-diol] | < 10 |
| Cc1cc(C(c2ccccc2)(c2ccc(OCC(O)C(C)(C)C)c(C)c2)C(F)(F)F)ccc1OCC(O)CO (stereo not drawn) [3-(2-Methyl-4-{2,2,2-trifluoro-1-[4-(2-hydroxy-3,3-dimethyl-butoxy)-3-methyl-phenyl]-1-phenyl-ethyl}-phenoxy)-propane-1,2-diol] | < 10 |
| CCC(O)(CC)CCc1ccc(C(CC)(CC)c2ccc(OC[C@@H](O)CO)c(C)c2)cc1C [3-(4-{1-ethyl-1-[4-(3-ethyl-3-hydroxypentyl)-3-methylphenyl]-propyl}-2-methyl-phenoxy)-propane-1,2(S)-diol] | < 10 |
| CCC(CC)(c1ccc(/C=C\C(O)C(C)(C)C)c(C)c1)c1ccc(OC[C@@H](O)CO)c(C)c1 (stereo partly drawn) [(Z)-3-(4-{1-ethyl-1-[4-(3-hydroxy-4,4-dimethylpent-1-enyl)-3-methylphenyl]-propyl}-2-methylphenoxy)-propane-1,2(S)-diol] | < 10 |
| Cc1cc(C(c2ccccc2)(c2ccc(OCC(O)C(C)(C)C)c(C)c2)C(F)(F)C(F)(F)F)ccc1OCC(O)CO (stereo not drawn) [3-(2-Methyl-4-{2,2,3,3,3-pentafluoro-1-[4-(2-hydroxy-3,3-dimethyl-butoxy)-3-methyl-phenyl]-1-phenyl-propyl}-phenoxy)-propane-1,2-diol] | < 10 |
| CC(=O)N1CCC(c2ccc(OCC(=O)C(C)(C)C)c(C)c2)(c2ccc(OCC(=O)C(C)(C)C)c(C)c2)CC1 [1-(4-{1-Acetyl-4-[4-(3,3-dimethyl-2-oxo-butoxy)-3-methyl-phenyl]-piperidin-4-yl}-2-methyl-phenoxy)-3,3-dimethyl-butan-2-one] | < 10 |
